According to ChEMBL document CHEMBL1641539 (Bioorg Med Chem Lett, 2011):

Key:
[1] = molecular target: Tyrosine-protein kinase JAK3 (Homo sapiens) (UniProt P52333); test: Inhibition of human JAK3 at 10 uM after 60 mins by TR-FRET assay; conditions: values are per cent of control
[2] = molecular target: Ribosomal protein S6 kinase beta-1 (Homo sapiens) (UniProt P23443); test: Inhibition of human p70S6K at 10 uM after 60 mins by TR-FRET assay; values are per cent of control
[3] = molecular target: Interleukin-1 receptor-associated kinase 4 (Homo sapiens) (UniProt Q9NWZ3); test: Inhibition of human IRAK4 at 10 uM after 60 mins by TR-FRET assay; conditions: values are per cent of control
[4] = test system: Mitogen-activated protein kinase 14 (Homo sapiens), Q16539 [T106M]; test: Inhibition of human SAPK2a T106M mutant at 10 uM after 60 mins by TR-FRET assay; conditions: values are per cent of control
Chain of Mitogen-activated protein kinase 14 (Homo sapiens), Q16539 [T106M] (Q16539 whole entry T106M): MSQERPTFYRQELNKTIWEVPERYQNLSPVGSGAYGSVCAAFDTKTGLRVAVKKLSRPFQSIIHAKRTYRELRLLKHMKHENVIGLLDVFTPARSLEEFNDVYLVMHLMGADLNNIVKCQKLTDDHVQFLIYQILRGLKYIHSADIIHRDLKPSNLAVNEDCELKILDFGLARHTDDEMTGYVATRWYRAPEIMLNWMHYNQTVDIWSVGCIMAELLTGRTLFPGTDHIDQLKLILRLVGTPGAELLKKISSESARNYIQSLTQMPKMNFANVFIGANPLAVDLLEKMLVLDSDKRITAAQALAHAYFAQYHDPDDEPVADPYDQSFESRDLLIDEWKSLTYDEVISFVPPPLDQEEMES

[5] = test system: Mast/stem cell growth factor receptor Kit (Homo sapiens), P10721 [D816V]; test: Inhibition of human c-Kit D816V mutant at 10 uM after 60 mins by TR-FRET assay; values are per cent of control
Chain of Mast/stem cell growth factor receptor Kit (Homo sapiens), P10721 [D816V] (P10721 whole entry D816V): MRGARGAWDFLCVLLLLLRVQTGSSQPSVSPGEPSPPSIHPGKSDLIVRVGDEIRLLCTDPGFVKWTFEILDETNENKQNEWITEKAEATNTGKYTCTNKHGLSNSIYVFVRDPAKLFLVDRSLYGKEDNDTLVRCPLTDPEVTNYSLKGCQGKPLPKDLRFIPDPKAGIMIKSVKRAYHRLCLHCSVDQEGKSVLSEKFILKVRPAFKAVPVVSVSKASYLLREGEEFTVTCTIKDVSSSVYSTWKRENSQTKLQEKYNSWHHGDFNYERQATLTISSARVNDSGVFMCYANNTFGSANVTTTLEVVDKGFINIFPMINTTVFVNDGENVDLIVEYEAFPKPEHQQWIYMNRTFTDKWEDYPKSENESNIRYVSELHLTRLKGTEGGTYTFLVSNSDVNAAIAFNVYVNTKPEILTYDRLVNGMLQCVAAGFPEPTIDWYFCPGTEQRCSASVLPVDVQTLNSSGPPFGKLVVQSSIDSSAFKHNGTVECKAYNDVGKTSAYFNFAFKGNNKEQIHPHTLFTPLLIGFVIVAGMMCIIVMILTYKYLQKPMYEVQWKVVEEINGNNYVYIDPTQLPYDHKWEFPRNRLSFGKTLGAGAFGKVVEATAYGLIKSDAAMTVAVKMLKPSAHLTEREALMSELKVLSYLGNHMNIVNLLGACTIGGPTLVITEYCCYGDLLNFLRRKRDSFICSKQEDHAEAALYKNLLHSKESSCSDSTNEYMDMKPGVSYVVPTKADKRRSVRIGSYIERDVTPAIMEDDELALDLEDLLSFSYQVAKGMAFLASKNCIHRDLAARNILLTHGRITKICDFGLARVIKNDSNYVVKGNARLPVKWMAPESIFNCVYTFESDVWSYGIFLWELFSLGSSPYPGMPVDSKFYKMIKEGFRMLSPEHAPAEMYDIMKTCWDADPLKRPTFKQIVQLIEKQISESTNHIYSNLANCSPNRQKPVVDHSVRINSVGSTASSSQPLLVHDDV

[6] = molecular target: Protein-tyrosine kinase 2-beta (Homo sapiens) (UniProt Q14289); test: Inhibition of human Pyk2 at 10 uM after 60 mins by TR-FRET assay; values are per cent of control
[7] = molecular target: Serine/threonine-protein kinase pim-3 (Homo sapiens) (UniProt Q86V86); test: Inhibition of human Pim-3 at 10 uM after 60 mins by TR-FRET assay; values are per cent of control
[8] = molecular target: Fibroblast growth factor receptor 3 (Homo sapiens) (UniProt P22607); test: Inhibition of human FGFR3 at 10 uM after 60 mins by TR-FRET assay; values are per cent of control
[9] = test system: Receptor-type tyrosine-protein kinase FLT3 (Homo sapiens), P36888 [D835Y]; test: Inhibition of human Flt3 D835Y mutant at 10 uM after 60 mins by TR-FRET assay; values are per cent of control
[10] = molecular target: Tyrosine-protein kinase CSK (Homo sapiens) (UniProt P41240); test: Inhibition of human CSK at 10 uM after 60 mins by TR-FRET assay; values are per cent of control
Saccharomyces cerevisiae = test: Inhibition of yeast CK1 at 10 uM after 60 mins by TR-FRET assay; values are per cent of control
[11] = molecular target: Discoidin domain-containing receptor 2 (Homo sapiens) (UniProt Q16832); test: Inhibition of human DDR2 at 10 uM after 60 mins by TR-FRET assay; values are per cent of control
[12] = molecular target: Ephrin type-B receptor 1 (Homo sapiens) (UniProt P54762); test: Inhibition of human EphB1 at 10 uM after 60 mins by TR-FRET assay; values are per cent of control
Chain of Ephrin type-B receptor 1 (Homo sapiens) (P54762 whole entry): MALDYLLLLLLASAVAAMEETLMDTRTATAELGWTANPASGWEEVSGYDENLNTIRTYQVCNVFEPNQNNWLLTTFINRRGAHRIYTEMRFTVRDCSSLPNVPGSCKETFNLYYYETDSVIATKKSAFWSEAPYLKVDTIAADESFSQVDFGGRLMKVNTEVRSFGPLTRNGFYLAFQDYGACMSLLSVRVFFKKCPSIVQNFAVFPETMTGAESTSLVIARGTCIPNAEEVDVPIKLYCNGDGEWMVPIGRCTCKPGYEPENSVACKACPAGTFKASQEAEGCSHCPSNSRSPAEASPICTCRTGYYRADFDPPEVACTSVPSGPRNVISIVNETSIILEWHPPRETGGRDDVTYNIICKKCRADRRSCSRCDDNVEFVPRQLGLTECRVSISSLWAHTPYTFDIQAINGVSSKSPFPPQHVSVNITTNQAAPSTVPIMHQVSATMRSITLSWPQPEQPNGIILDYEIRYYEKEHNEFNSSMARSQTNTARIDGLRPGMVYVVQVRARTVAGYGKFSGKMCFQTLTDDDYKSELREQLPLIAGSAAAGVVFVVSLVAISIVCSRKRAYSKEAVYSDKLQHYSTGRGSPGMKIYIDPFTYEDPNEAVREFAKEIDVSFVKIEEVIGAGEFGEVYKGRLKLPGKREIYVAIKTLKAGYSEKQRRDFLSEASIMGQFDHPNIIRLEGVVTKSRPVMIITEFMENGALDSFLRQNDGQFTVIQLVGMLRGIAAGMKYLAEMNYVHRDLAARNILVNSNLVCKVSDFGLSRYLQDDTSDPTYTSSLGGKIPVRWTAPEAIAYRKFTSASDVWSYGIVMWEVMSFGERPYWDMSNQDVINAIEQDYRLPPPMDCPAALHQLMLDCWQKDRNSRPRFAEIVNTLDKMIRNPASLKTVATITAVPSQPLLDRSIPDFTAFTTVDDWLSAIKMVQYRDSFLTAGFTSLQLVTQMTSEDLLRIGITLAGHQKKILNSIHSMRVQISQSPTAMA

[13] = molecular target: Ephrin type-B receptor 3 (Homo sapiens) (UniProt P54753); test: Inhibition of human EphB3 at 10 uM after 60 mins by TR-FRET assay; values are per cent of control
Chain of Ephrin type-B receptor 3 (Homo sapiens) (P54753 whole entry, the tested form may be a part): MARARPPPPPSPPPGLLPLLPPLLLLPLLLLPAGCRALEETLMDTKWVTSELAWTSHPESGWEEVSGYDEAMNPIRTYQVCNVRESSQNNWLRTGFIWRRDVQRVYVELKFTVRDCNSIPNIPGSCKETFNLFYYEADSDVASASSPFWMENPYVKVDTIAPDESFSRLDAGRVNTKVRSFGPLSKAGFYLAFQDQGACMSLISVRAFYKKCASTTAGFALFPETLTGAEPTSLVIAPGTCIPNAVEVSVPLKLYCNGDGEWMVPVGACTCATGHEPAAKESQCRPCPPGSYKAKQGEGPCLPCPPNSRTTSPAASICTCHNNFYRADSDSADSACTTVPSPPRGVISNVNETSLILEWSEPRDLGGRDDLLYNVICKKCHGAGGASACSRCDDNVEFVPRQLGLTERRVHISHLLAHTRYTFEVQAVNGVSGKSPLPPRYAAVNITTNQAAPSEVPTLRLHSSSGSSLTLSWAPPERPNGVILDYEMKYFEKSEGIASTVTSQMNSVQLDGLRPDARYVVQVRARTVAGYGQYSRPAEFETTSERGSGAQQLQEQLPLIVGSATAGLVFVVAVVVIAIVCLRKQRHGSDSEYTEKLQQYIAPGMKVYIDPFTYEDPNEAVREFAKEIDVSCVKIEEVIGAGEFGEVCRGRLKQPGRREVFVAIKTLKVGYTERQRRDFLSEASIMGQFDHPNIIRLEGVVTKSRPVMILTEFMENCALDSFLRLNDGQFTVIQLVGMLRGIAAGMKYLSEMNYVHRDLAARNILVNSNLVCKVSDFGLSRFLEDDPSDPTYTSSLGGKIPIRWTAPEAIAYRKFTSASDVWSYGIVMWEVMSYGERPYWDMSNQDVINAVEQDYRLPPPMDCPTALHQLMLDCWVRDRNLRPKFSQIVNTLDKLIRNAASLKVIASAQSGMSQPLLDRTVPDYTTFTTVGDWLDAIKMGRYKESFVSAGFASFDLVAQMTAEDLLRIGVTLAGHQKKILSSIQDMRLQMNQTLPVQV

[14] = molecular target: LIM domain kinase 1 (Homo sapiens) (UniProt P53667); test: Inhibition of human LIMK1 at 10 uM after 60 mins by TR-FRET assay; values are per cent of control
Chain of LIM domain kinase 1 (Homo sapiens) (P53667 whole entry, looked up, the tested form may be a part): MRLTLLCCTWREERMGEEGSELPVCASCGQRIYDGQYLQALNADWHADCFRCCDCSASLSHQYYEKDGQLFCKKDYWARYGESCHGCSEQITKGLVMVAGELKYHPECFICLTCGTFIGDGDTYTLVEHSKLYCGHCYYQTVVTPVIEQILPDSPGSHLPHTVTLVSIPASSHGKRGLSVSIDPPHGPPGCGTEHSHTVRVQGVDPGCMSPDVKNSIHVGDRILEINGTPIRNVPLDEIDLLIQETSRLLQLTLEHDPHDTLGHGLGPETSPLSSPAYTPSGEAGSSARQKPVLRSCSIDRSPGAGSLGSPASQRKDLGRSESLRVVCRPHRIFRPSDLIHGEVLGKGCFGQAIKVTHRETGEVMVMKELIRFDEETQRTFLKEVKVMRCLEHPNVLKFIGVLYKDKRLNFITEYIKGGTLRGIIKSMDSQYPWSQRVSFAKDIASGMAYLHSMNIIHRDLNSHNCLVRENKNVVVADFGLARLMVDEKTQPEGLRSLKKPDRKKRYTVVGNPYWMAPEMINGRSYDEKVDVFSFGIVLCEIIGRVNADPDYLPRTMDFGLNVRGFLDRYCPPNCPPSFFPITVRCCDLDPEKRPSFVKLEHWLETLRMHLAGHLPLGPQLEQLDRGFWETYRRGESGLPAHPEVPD

[15] = molecular target: CDK3/cyclin E (Homo sapiens) (UniProt P24864+O96020+Q00526); test: Inhibition of human CDK3/cyclinE at 10 uM after 60 mins by TR-FRET assay; values are per cent of control
[16] = molecular target: Protein kinase C beta type (Homo sapiens) (UniProt P05771); test: Inhibition of human PKCbeta2 at 10 uM after 60 mins by TR-FRET assay; values are per cent of control
[17] = molecular target: Vascular endothelial growth factor receptor 3 (Homo sapiens) (UniProt P35916); test: Inhibition of human Flt4 at 10 uM after 60 mins by TR-FRET assay; values are per cent of control
[18] = molecular target: Ribosomal protein S6 kinase alpha-3 (Homo sapiens) (UniProt P51812); test: Inhibition of human Rsk2 at 10 uM after 60 mins by TR-FRET assay; conditions: values are per cent of control
Chain of Ribosomal protein S6 kinase alpha-3 (Homo sapiens) (P51812 whole entry): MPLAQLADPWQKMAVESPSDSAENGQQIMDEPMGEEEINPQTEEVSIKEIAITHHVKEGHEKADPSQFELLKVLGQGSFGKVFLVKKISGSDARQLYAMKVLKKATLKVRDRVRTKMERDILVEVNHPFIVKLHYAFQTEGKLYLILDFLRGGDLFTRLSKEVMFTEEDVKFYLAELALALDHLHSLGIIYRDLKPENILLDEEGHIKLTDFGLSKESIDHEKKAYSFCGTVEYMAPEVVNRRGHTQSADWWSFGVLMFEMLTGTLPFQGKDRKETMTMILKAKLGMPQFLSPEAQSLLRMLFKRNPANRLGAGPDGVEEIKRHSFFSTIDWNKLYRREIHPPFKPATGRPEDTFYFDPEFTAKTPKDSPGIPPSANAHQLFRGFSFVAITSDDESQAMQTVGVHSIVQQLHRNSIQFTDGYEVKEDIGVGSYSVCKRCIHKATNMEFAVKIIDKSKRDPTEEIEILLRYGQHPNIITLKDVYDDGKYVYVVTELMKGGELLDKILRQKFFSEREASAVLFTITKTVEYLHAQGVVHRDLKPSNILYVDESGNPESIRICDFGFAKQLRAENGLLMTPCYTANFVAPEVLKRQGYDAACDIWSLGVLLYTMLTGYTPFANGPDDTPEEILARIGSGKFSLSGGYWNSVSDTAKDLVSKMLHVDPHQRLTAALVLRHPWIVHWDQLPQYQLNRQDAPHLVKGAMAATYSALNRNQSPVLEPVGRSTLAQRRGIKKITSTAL

[19] = molecular target: Mitogen-activated protein kinase 13 (Homo sapiens) (UniProt O15264); test: Inhibition of human SAPK4 at 10 uM after 60 mins by TR-FRET assay; conditions: values are per cent of control
[20] = molecular target: Cyclin-dependent kinase 2/cyclin A (Homo sapiens) (UniProt P24941+P20248+P78396); test: Inhibition of human CDK2/cyclinA at 10 uM after 60 mins by TR-FRET assay; values are per cent of control
[21] = molecular target: Ribosomal protein S6 kinase alpha-4 (Homo sapiens) (UniProt O75676); test: Inhibition of human MSK2 at 10 uM after 60 mins by TR-FRET assay; conditions: values are per cent of control
[22] = molecular target: Eukaryotic elongation factor 2 kinase (Homo sapiens) (UniProt O00418); test: Inhibition of human eEF-2K at 10 uM after 60 mins by TR-FRET assay; values are per cent of control
[23] = molecular target: Serine/threonine-protein kinase TAO2 (Homo sapiens) (UniProt Q9UL54); test: Inhibition of human TAO2 at 10 uM after 60 mins by TR-FRET assay; values are per cent of control
[24] = molecular target: Protein kinase C zeta type (Homo sapiens) (UniProt Q05513); test: Inhibition of human PKCzeta at 10 uM after 60 mins by TR-FRET assay; values are per cent of control
[25] = molecular target: Serine/threonine-protein kinase mTOR (Homo sapiens) (UniProt P42345); test: Inhibition of human mTOR at 10 uM after 60 mins by TR-FRET assay; conditions: values are per cent of control
[26] = molecular target: Tyrosine-protein kinase TXK (Homo sapiens) (UniProt P42681); test: Inhibition of human Txk at 10 uM after 60 mins by TR-FRET assay; values are per cent of control
[27] = molecular target: mTOR/FKBP12A/FKBP12B (Homo sapiens) (UniProt P62942+P68106+P42345); test: Inhibition of human mTOR/FKBP12 at 10 uM after 60 mins by TR-FRET assay; assay type: protein-complex assay; conditions: values are per cent of control
[28] = molecular target: Myotonin-protein kinase (Homo sapiens) (UniProt Q09013); test: Inhibition of human DMPK at 10 uM after 60 mins by TR-FRET assay; values are per cent of control

S=c1[nH]nc(-c2ccncc2)n1-c1ccc2ccccc2c1
residual activity [1]: 147%
residual activity [2]: 102%
residual activity [3]: 114%
residual activity [4]: 104%
residual activity [5]: 113%
residual activity [6]: 98%
residual activity [7]: 99%
residual activity [8]: 109%
residual activity [9]: 99%
residual activity [10]: 100%
residual activity (Saccharomyces cerevisiae): 90%
residual activity [11]: 94%
residual activity [12]: 79%
residual activity [13]: 102%
residual activity [14]: 101%
residual activity [15]: 94%
residual activity [16]: 105%
residual activity [17]: 95%
residual activity [18]: 98%
residual activity [19]: 111%
residual activity [20]: 114%
residual activity [21]: 109%
residual activity [22]: 105%
residual activity [23]: 103%
residual activity [24]: 115%
residual activity [25]: 98%
residual activity [26]: 93%
residual activity [27]: 107%
residual activity [28]: 111%
